Columns and labels:
Type in all cases: in vivo
Diabrotica balteata = Diabrotica balteata spray test; conditions: 168 h, wheat seeds, after 7 days, read-out: activity (efficacy, seedlings grown); for pest or weed control at 160 µg/disc, 500 g/ha: 500 g/ha (=160 μg/well)
Method in brief: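 Efficacy was read 7 days after infesting each unit with 10–20 banded cucumber beetle larvae, as % of seedlings growing like untreated, uninfested controls. Before infestation, wheat seeds germinated 1 day on agar (5 per well) were sprayed with the active ingredient. The active was formulated in acetone/DMF and diluted in water containing emulsifier.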

Nilaparvata lugens = Nilaparvata lugens spray test; conditions: 96 h, rice plants, after 4 days
Description: Nilaparvata lugens—Spray Test
(§1) Solvent: 78.0 parts by weight of acetone • • 1.5 parts by weight of dimethylformamide
(§2) Emulsifier: alkylarylpolyglycol ether
(§3) To produce a suitable preparation of active compound, 1 part by weight of active compound is mixed with the stated amount of solvents and is diluted with water, containing an emulsifier concentration of 1000 ppm, to the desired concentration. Further test concentrations are prepared by dilution with emulsifier containing water.
Rice plants (Oryza sativa) are sprayed with a preparation of the active ingredient of the desired concentration and the plants are infested with the brown planthopper (Nilaparvata lugens).
After 4 days mortality in % is determined. 100% means all planthoppers have been killed and 0% means none of the planthoppers have been killed.

[1] = tested on: Rhipicephalus microplus (strain Parkhurst, resistant against synthetic pyrethroids); assay: Rhipicephalus microplus in-vitro contact test, larval cattle tick (BOOPMI Contact); conditions: 5 μg/cm^2 (=500 g/ha), after 48 hours, read-out: activity (efficacy, larvae dead or moribund)
Method in brief: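 Efficacy, expressed as percentage of larvae dead or moribund, is judged by negative geotactic behaviour 48 h after larvae (20-50 per tube) enter tubes whose inner walls carry a dried acetone film of compound, 5 μg/cm² at 900 ppm. Incubation: horizontal, 27 °C, 85% relative humidity.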

Ctenocephalides felis [2] = assay: Ctenocephalides felis in-vitro contact test, adult cat flea; conditions: 5 μg/cm^2 (=500 g/ha), after 48 hours, read-out: activity (efficacy, fleas dead or moribund)
Method in brief: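 Acetone solutions coated onto inner walls of glass tubes; 900 ppm gives 5 μg/cm^2. After drying, 5-10 adult Ctenocephalides felis per tube held 48 h at room temperature. Fleas then placed on 45-50° C. plate for up to 5 min; those unable to climb away scored dead or moribund, efficacy as % dead/moribund.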

Rhipicephalus sanguineus = Rhipicephalus sanguineus in-vitro contact test, adult brown dog ticks (RHIPSA Contact); conditions: 5 μg/cm^2 (=500 g/ha), after 48 hours, read-out: activity (efficacy, ticks dead or moribund)
Method in brief: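 Acetone solution coated onto glass tube walls; 900 ppm gives 5 μg/cm^2. After drying, 5-10 adult ticks per tube kept at room temperature for 48 h, then placed on a 45-50° C heating plate up to 5 min; ticks unable to climb away counted dead or moribund, efficacy as % affected.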

Myzus persicae [3] = assay: Myzus persicae spray test; conditions: foliar, 120 h, 100 g/ha, Chinese cabbage leaf disks, after 5 days
Description: Myzus persicae—Spray Test
(§4) Solvent: 78.0 parts by weight acetone • 1.5 parts by weight dimethylformamide
as §2, §3
Chinese cabbage (Brassica pekinensis) leaf disks infected with all instars of the green peach aphid (Myzus persicae), are sprayed with a preparation of the active ingredient of the desired concentration.
(§5) After 5 days mortality in % is determined. 100% means all aphids have been killed and 0% means none of the aphids have been killed.

Nezara viridula = Nezara viridula spray test; conditions: 96 h, barley plants, after 4 days
Description: Nezara viridula—Spray Test
as §1, §2
as §3, with “solvent,” for “solvents”, “and the concentrate” for “and”
Barley plants (Hordeum vulgare) are sprayed with a test solution containing the desired concentration of the active ingredient and are infested with larvae of the southern green stink bug (Nezara viridula).
After 4 days, mortality in % is determined. 100% means all the stink bugs have been killed; 0% means none of the stink bugs have been killed.

Spodoptera frugiperda = Spodoptera frugiperda spray test; conditions: in Zea mays, 168 h, read-out: activity (mortality)
Method in brief: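 Larvae of fall armyworm placed on dried maize leaf sections previously sprayed with emulsified compound (acetone/DMF solvent, water with 1000 ppm emulsifier). Percent of caterpillars killed recorded on day 7, 0–100% scale.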

Tetranychus urticae = Tetranychus urticae spray test OP-resistant; conditions: foliar, 144 h, French bean leaf disks, after 6 days
Description: Tetranychus urticae—Spray Test OP-Resistant
as §4, §2, §3
French bean (Phaseolus vulgaris) leaf disks infected with all instars of the two spotted spidermite (Tetranychus urticae) are sprayed with a preparation of the active ingredient of the desired concentration.
After 6 days mortality in % is determined. 100% means all spider mites have been killed and 0% means none of the spider mites have been killed.

Ctenocephalides felis [4] = assay: Ctenocephalides felis oral test (CTECFE); conditions: 48 h, 100 ppm in cattle blood, after 2 days
Method in brief: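 About 20 adult unfed fleas fed through parafilm on cattle blood held at 37° C and dosed with compound from a DMSO concentrate; flea chamber at room temperature. Percent mortality scored after 2 days.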

Boophilus microplus = Boophilus microplus injection test (BOOPMI Injection); conditions: Rhipicephalus microplus, 168 h, injection into adult engorged female ticks, egg deposition after 7 days, read-out: activity (efficacy, infertile eggs); for pest or weed control at 0.004 mg: 4 μg/animal; for pest or weed control at 0.02 mg: 20 μg/animal
Method in brief: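 Adult engorged female ticks (5 per group) injected into the abdomen with 1 μL compound in DMSO, then held in a climate chamber. Fertile egg deposition scored after 7 days, with unclear eggs kept until hatching (~42 days). Efficacy 100% = all eggs infertile, 0% = all fertile.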

Myzus persicae [5] = assay: Myzus persicae oral test; conditions: 120 h, after 5 days
Description: Solvent: 100 parts by weight acetone
Afterwards the plates are sealed with parafilm through which a mixed population of the green peach aphid (Myzus persicae) can suck on the compound preparation.
as §5

[6] = tested on: Aedes aegypti strain MONHEIM; assay: Aedes aegypti test (AEDSAE surface treatment & contact assay); conditions: 30 minutes exposure, 24 hours after contact, read-out: efficacy (mortality); for mortality at 20 mg/m2: surface concentration 20 mg/m^2, glazed tile
Description: Aedes aegypti Test (AEDSAE Surface Treatment & Contact Assay)
(§6) Solvent: Aceton+2000 ppm rapeseed oil methyl ester (RME)
(§7) In order to produce a sufficient, active ingredient containing solution it is necessary to solve the test compound in the solvent-mix (acetone at 2 mg/mL/RME 2000 ppm). This solution is pipetted onto a glazed tile and after evaporation of the acetone, adult mosquitoes of the species Aedes aegypti strain MONHEIM are placed onto the dried surface. The exposure time is 30 minutes.
(§8) Mortality in percent (%) is determined 24 hours after contact of the insects to the treated surface. 100% mortality means that all tested insects are dead, whereas 0% means that no insect died.

[7] = tested on: Anopheles funestus strain FUMOZ-R; assay: Anopheles funestus test (ANPHFU surface treatment & contact assay); conditions: 30 minutes exposure, 24 hours after contact, read-out: efficacy (mortality); for mortality at 20 mg/m2: surface concentration 20 mg/m^2, glazed tile
Description: Anopheles funestus Test (ANPHFU Surface Treatment & Contact Assay)
as §6
as §7, with “Anopheles funestus” for “Aedes aegypti”, “FUMOZ-R (Hunt et al., Med. Vet. Entomol. 2005 September; 19(3): 271-275)” for “MONHEIM”
as §8

[8] = tested on: Musca domestica strain WHO-N; assay: Musca domestica test (MUSCDO surface treatment & contact assay); conditions: 30 minutes exposure, 24 hours after contact, read-out: efficacy (mortality)
Description: Musca domestica Test (MUSCDO Surface Treatment & Contact Assay)
as §6
as §7, with “flies” for “mosquitoes”, “Musca domestica” for “Aedes aegypti”, “WHO—N” for “MONHEIM”
as §8

[9] = tested on: Culex quinquefasciatus strain P00; assay: Culex quinquefasciatus test (CULXFA surface treatment & contact assay); conditions: surface concentration 20 mg/m^2, glazed tile, 30 minutes exposure, 24 hours after contact, read-out: efficacy (mortality)
Description: Culex quinquefasciatus Test (CULXFA Surface Treatment & Contact Assay)
as §6
as §7, with “2 000” for “2000”, “Culex quinquefasciatus” for “Aedes aegypti”, “P00” for “MONHEIM”
as §8

[10] = surface concentration 4 mg/m^2, glazed tile

Row | SMILES | pest or weed control at 160 µg/disc, 500 g/ha (Diabrotica balteata) | mortality at 500 g/ha (Nilaparvata lugens) | pest or weed control at 5 µg/cm2 [1] | pest or weed control at 5 µg/cm2, 5 µg/cm2 (Ctenocephalides felis [2]) | pest or weed control at 5 µg/cm2, 5 µg/cm2 (Rhipicephalus sanguineus) | pest or weed control at 100 g/ha (Diabrotica balteata) | mortality at 100 g/ha (Spodoptera frugiperda) | mortality at 100 ppm (Ctenocephalides felis [4]) | pest or weed control at 0.004 mg (Boophilus microplus) | pest or weed control at 0.02 mg (Boophilus microplus) | mortality at 4 ppm (Myzus persicae [5]) | mortality at 500 g/ha (Spodoptera frugiperda) | mortality at 20 mg/m2 [6] | mortality at 20 mg/m2 [7] | further results
1 | C[C@H](Nc1nc2ccccc2s1)c1ncnn1-c1ncccn1 [Example I-009] | 80% | 100% |  |  |  |  |  |  |  |  |  |  |  |  | 
2 | C[C@H](Nc1nc2cc(OC(F)(F)F)c(Cl)cc2o1)c1ncnn1-c1ncc(Br)cn1 [Example I-085, N-{(1S)-1-[1-(5-Brompyrimidin-2-yl)-1H-1,2,4-triazol-5-yl]ethyl}-6-chlor-5(trifluormethoxy)-1,3-benzoxazol-2-amin] |  |  | 100% | 100% | 100% | 100% | 100% |  |  |  |  |  |  |  | mortality at 100 g/ha (Myzus persicae [3]): 90%; mortality at 100 g/ha (Nezara viridula; 100 g/ha): 100%; mortality at 100 g/ha (Tetranychus urticae; 100 g/ha): 90%
3 | Cc1cc2oc(N[C@@H](C)c3ncnn3-c3ncccn3)nc2cc1Br [Example I-007] |  | 100% | 100% |  |  |  |  | 100% |  |  |  |  |  |  | 
4 | C[C@H](Nc1nc2cc(C(F)(F)F)c(Cl)cc2o1)c1ncnn1-c1ccc(C#N)cn1 [Example I-017] | 100% |  | 100% | 100% |  | 100% | 100% |  | 100% | 100% | 90% | 100% | 90 to 100% | 90 to 100% | mortality at 500 g/ha (Nezara viridula; 500 g/ha): 100%; mortality at 4 mg/m2 [6, 10]: 85 to 100%; mortality at 4 mg/m2 [7, 10]: 85 to 100%; mortality at 4 mg/m2 [8, 10]: 90 to 100%; mortality at 20 mg/m2 ([8]; surface concentration 20 mg/m^2, glazed tile): 90 to 100%
5 | C[C@H](Nc1nc2cc(C(F)(F)F)cc(C(F)(F)F)c2o1)c1ncnn1-c1ncccn1 [Example I-005] | 100% |  | 100% | 100% |  |  | 100% | 100% | 100% | 100% | 90% | 100% | 90 to 100% | 90 to 100% | mortality at 20 mg/m2 [9]: 90 to 100%
6 | C[C@H](Nc1nc2cc(C3CC3)cc(Cl)c2o1)c1ncnn1-c1ncccc1F [Example I-067, 7-Chlor-5-cyclopropyl-N-{(1S)-1-[1-(3-fluorpyridin-2-yl)-1H-1,2,4-triazol-5-yl]ethyl}-1,3-benzoxazol-2-amin] | 80% |  |  |  | 80% |  |  | 80% | 100% | 100% |  |  |  |  | mortality at 500 g/ha (Tetranychus urticae; 500 g/ha): 90%

Source: US12384769B2, “Heteroaryl-substituted aminoalkyl azole compounds as pesticides” (Elanco Animal Health GmbH, priority 2019, dated 2025)
